Among the data in US8846739B2, “TGR5 agonists” (Exelixis Patent Company LLC, priority 2009, dated 2014) are EC50 values, retold here.

Each structure is given as a SMILES string. pEC50: −log10 of the molar value.

One assay addresses T1, h-TGR5 (Homo sapiens, UniProt Q8TDU6).
T1 sequence (Q8TDU6 1-330): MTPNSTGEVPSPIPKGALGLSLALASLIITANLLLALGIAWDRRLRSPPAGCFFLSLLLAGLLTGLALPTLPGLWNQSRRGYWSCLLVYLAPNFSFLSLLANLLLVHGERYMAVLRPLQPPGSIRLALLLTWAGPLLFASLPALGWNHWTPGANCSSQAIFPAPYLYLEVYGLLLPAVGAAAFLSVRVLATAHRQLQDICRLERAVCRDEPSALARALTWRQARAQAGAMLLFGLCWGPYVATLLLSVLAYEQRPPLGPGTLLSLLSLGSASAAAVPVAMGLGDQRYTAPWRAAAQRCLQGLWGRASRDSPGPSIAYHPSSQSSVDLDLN
Put plainly: TGR5 cAMP Assay using Cisbio cAMP Dynamic 2 htrf assay kit. The assay is classed as cell-based. The settings on record: hTGR5CRE-luc HEK 293 cells.

The target of another assay is T2, human TGR5 (h-TGR5) (Homo sapiens, UniProt Q8TDU6).
T2 sequence (Q8TDU6 1-330): T1 sequence (Q8TDU6 1-330)
Put plainly: TGR5/CRE-Luciferase Assay. The note with it: HEK 293 hTGR5/CRE-Luc cells, 6 hours incubation, read-out: CRE-Luc Agonist (EC50). It is filed as cell-based. In short, it runs like this: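 HEK 293 CRE-Luciferase cells stably expressing the receptor, plated in DMEM 18-20 h before assay, then exposed to serially diluted compounds (DMEM with 5% DMSO) for 6 h. Luciferase read-out after lysis; EC50 from dose-response.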

As a reminder, the pEC50 is the EC50 on a negative log10 scale, so that one unit is a factor of ten. Regarding `COc1cc(C(C)(C)c2cnc(SCc3c(F)cc(C(=O)NC4CC[N+](C)(CC(=O)O)CC4)cc3Cl)n2-c2ccc(F)cc2)ccc1Cl` (centres unmarked) [Example 3, 1-(Carboxymethyl)-4-(3-chloro-4-((5-(2-(4-chloro-3-methoxyphenyl)propan-2-yl)-1-(4-fluorophenyl)-1H-imidazol-2-ylthio)methyl)-5-fluorobenzamido)-1-methyl-piperidinium 2,2,2-trifluoroacetate], the negative logarithm of the EC50 (pEC50) on h-TGR5 and on human TGR5 (h-TGR5) was above 7.00 each time.
Turning to `COc1cc(C(C)(C)c2cnc(SCc3c(F)cc(C(=O)NCC[N+](C)(C)CCCS(=O)(=O)[O-])cc3Cl)n2-c2ccc(F)cc2)ccc1Cl` [Example 4, 3-((2-(3-Chloro-4-((5-(2-(4-chloro-3-methoxyphenyl)propan-2-yl)-1-(4-fluorophenyl)-1H-imidazol-2-ylthio)methyl)-5-fluorobenzamido)ethyl)dimethylammonio)-propane-1-sulfonate], the pEC50 on h-TGR5 and on human TGR5 (h-TGR5) was above 7.00 throughout.
Consider `COc1cc(C(C)(C)c2cnc(SCc3c(F)cc(NC(=O)NCC[N+](C)(C)C)cc3Cl)n2-c2ccc(F)cc2)ccc1Cl` [Example 5], for which the pEC50 on h-TGR5 and on human TGR5 (h-TGR5) was above 7.00 each time.
As for `COc1cc(C(C)(C)c2cnc(SCc3c(F)cc(S(=O)(=O)NCCC[N+](C)(C)C)cc3F)n2-c2ccc(F)cc2)ccc1Cl` [Example 6, 3-(4-((5-(2-(4-Chloro-3-methoxyphenyl)propan-2-yl)—(4-fluorophenyl)-1H-imidazol-2-ylthio)methyl)-3,5-difluorophenylsulfonamido)-N,N,N-trimethylpropan-1-aminium 2,2,2-trifluoroacetate], the pEC50 on h-TGR5 and on human TGR5 (h-TGR5) was above 7.00 each time.
As to `COc1cc(C(C)(C)c2cnc(SCc3c(F)cc(S(=O)(=O)NCCC[N+](C)(C)C)cc3Cl)n2-c2ccc(F)cc2)ccc1F` [Example 6a, 3-({[3-chloro-5-fluoro-4-({[5-{1-[4-fluoro-3-(methyloxy)phenyl]-1-methylethyl}-1-(4-fluorophenyl)-1H-imidazol-2-yl]thio}methyl)phenyl]sulfonyl}amino)-N,N,N-trimethylpropan-1-aminium], the pEC50 at h-TGR5 and at human TGR5 (h-TGR5) was above 7.00 in each case.
On to `COc1cc(-n2c(C(C)(C)c3ccc(S(N)(=O)=O)c(Cl)c3)cnc2SCc2c(F)cc(S(=O)(=O)NCCC[N+](C)(C)C)cc2F)ccc1F` [Example 6b, 3-{[(4-{[(5-{1-[4-(aminosulfonyl)-3-chlorophenyl]-1-methylethyl}-1-[4-fluoro-3-(methyloxy)phenyl]-1H-imidazol-2-yl)thio]methyl}-3,5-difluorophenyl)sulfonyl]amino}-N,N,N-trimethylpropan-1-aminium], for which the pEC50 on h-TGR5 and on human TGR5 (h-TGR5) was above 7.00 throughout.
Consider `CC[N+](CC)(CC)CCCNS(=O)(=O)c1cc(F)c(CSc2ncc(C(C)(C)c3ccc(Cl)c(OC)c3)n2-c2ccc(F)cc2)c(Cl)c1` [Example 6c, 3-({[3-chloro-4-({[5-{1-[4-chloro-3-(methyloxy)phenyl]-1-methylethyl}-1-(4-fluorophenyl)-1H-imidazol-2-yl]thio}methyl)-5-fluorophenyl]sulfonyl}amino)-N,N,N-triethylpropan-1-aminium], for which the pEC50 on h-TGR5 and at human TGR5 (h-TGR5) was above 7.00 in each case.
`COc1cc(C(C)(C)c2nnc(SCc3c(F)cc(S(=O)(=O)NCCC[N+](C)(C)C)cc3F)n2-c2ccc(F)cc2)ccc1Cl` [Example 6d, 3-({[4-({[5-{1-[4-chloro-3-(methyloxy)phenyl]-1-methylethyl}-4-(4-fluorophenyl)-4H-1,2,4-triazol-3-yl]thio}methyl)-3,5-difluorophenyl]sulfonyl}amino)-N,N,N-trimethylpropan-1-aminium]: the pEC50 at h-TGR5 and at human TGR5 (h-TGR5) was above 7.00 each time.
Consider `COc1cc(-n2c(C(C)(C)c3ccc(Cl)c(Cl)c3)cnc2SCc2c(F)cc(S(=O)(=O)NCCC[N+](C)(C)C)cc2F)ccc1F` [Example 6e, 3-[({4-[({5-[1-(3,4-dichlorophenyl)-1-methylethyl]-1-[4-fluoro-3-(methyloxy)phenyl]-1H-imidazol-2-yl}thio)methyl]-3,5-difluorophenyl}sulfonyl)amino]-N,N,N-trimethylpropan-1-aminium], for which the pEC50 at h-TGR5 and at human TGR5 (h-TGR5) was above 7.00 each time.
Consider `COc1cc(C(C)(C)c2cnc(SCc3c(F)cc(S(=O)(=O)NCCC[N+](C)(C)C)cc3F)n2-c2ccc(F)cc2)ccc1F` [Example 6f, 3-({[3,5-difluoro-4-({[5-{1-[4-fluoro-3-(methyloxy)phenyl]-1-methylethyl}-1-(4-fluorophenyl)-1H-imidazol-2-yl]thio}methyl)phenyl]sulfonyl}amino)-N,N,N-trimethylpropan-1-aminium], for which the pEC50 at h-TGR5 and on human TGR5 (h-TGR5) was above 7.00 in each case.
Turning to `COC(=O)c1cc(-n2c(C(C)(C)c3ccc(Cl)c(OC)c3)cnc2SCc2c(F)cc(S(=O)(=O)NCCC[N+](C)(C)C)cc2F)ccc1F` [Example 6g, 3-{[(4-{[(5-{1-[4-chloro-3-(methyloxy)phenyl]-1-methylethyl}-1-{4-fluoro-3-[(methyloxy)carbonyl]phenyl}-1H-imidazol-2-yl)thio]methyl}-3,5-difluorophenyl)sulfonyl]amino}-N,N,N-trimethylpropan-1-aminium], the pEC50 at h-TGR5 and at human TGR5 (h-TGR5) was 6.00 to 7.00 in each case.
As to `COc1cc(-n2c(C(C)(C)c3ccc(F)c(Cl)c3)cnc2SCc2c(F)cc(S(=O)(=O)NCCC[N+](C)(C)C)cc2F)ccc1F` [Example 6h, 3-[({4-[({5-[1-(3-chloro-4-fluorophenyl)-1-methylethyl]-1-[4-fluoro-3-(methyloxy)phenyl]-1H-imidazol-2-yl}thio)methyl]-3,5-difluorophenyl}sulfonyl)amino]-N,N,N-trimethylpropan-1-aminium], the pEC50 on h-TGR5 and on human TGR5 (h-TGR5) was above 7.00 each time.
For the compound `COc1cc(C(C)(C)c2cnc(SCc3c(F)cc(S(=O)(=O)N(CCC[N+](C)(C)C)CCC[N+](C)(C)C)cc3F)n2-c2ccc(F)cc2)ccc1Cl` [Example 6i, 3,3′-({[4-({[5-{1-[4-chloro-3-(methyloxy)phenyl]-1-methylethyl}-1-(4-fluorophenyl)-1H-imidazol-2-yl]thio}methyl)-3,5-difluorophenyl]sulfonyl}imino)bis(N,N,N-trimethylpropan-1-aminium)], the pEC50 at h-TGR5 was above 7.00; on human TGR5 (h-TGR5), 6.00 to 7.00.
On to `COc1cc(C(C)(C)c2cnc(SCc3c(F)cc(S(=O)(=O)NCCC[N+](C)(C)C)cc3Cl)n2-c2ccc(F)cc2)ccc1Cl` [Example 6j, 3-({[3-chloro-4-({[5-{1-[4-chloro-3-(methyloxy)phenyl]-1-methylethyl}-1-(4-fluorophenyl)-1H-imidazol-2-yl]thio}methyl)-5-fluorophenyl]sulfonyl}amino)-N,N,N-trimethylpropan-1-aminium], for which the pEC50 at h-TGR5 and on human TGR5 (h-TGR5) was above 7.00 in each case.
In the case of `COc1cc(C(C)(C)c2cnc(SCc3c(F)cc(S(=O)(=O)NCC[N+](C)(C)C)cc3F)n2-c2ccc(F)cc2)ccc1Cl` [Example 6k, 2-({[4-({[5-{1-[4-chloro-3-(methyloxy)phenyl]-1-methylethyl}-1-(4-fluorophenyl)-1H-imidazol-2-yl]thio}methyl)-3,5-difluorophenyl]sulfonyl}amino)-N,N,N-trimethylethanaminium], the pEC50 on h-TGR5 and on human TGR5 (h-TGR5) was above 7.00 throughout.
Regarding `COc1cc(C(C)(C)c2cnc(SCc3ccc(Cl)c(S(=O)(=O)NCCC[N+](C)(C)C)c3)n2-c2ccc(F)cc2)ccc1Cl` [Example 6l, 3-({[2-chloro-5-({[5-{1-[4-chloro-3-(methyloxy)phenyl]-1-methylethyl}-1-(4-fluorophenyl)-1H-imidazol-2-yl]thio}methyl)phenyl]sulfonyl}amino)-N,N,N-trimethylpropan-1-aminium], the pEC50 at h-TGR5 and on human TGR5 (h-TGR5) was above 7.00 in each case.
In the case of `CC[N+](CC)(CC)CCCNS(=O)(=O)c1cc(F)c(CSc2ncc(C(C)(C)c3ccc(Cl)c(OC)c3)n2-c2ccc(F)cc2)c(F)c1` [Example 6m, 3-({[4-({[5-{1-[4-chloro-3-(methyloxy)phenyl]-1-methylethyl}-1-(4-fluorophenyl)-1H-imidazol-2-yl]thio}methyl)-3,5-difluorophenyl]sulfonyl}amino)-N,N,N-triethylpropan-1-aminium], the pEC50 on h-TGR5 and on human TGR5 (h-TGR5) was above 7.00 each time.
Regarding `COc1ccc(C(C)(C)c2cnc(SCc3c(F)cc(S(=O)(=O)NCCC[N+](C)(C)C)cc3F)n2-c2ccc(F)cc2)cc1Cl` [Example 6n, 3-({[4-({[5-{1-[3-chloro-4-(methyloxy)phenyl]-1-methylethyl}-1-(4-fluorophenyl)-1H-imidazol-2-yl]thio}methyl)-3,5-difluorophenyl]sulfonyl}amino)-N,N,N-trimethylpropan-1-aminium], the pEC50 on h-TGR5 and on human TGR5 (h-TGR5) was above 7.00 in each case.
`CC[N+](CC)(CC)CCCNS(=O)(=O)c1cc(F)c(CSc2ncc(C(C)(C)c3ccc(F)c(OC)c3)n2-c2ccc(F)cc2)c(Cl)c1` [Example 6o, 3-({[3-chloro-5-fluoro-4-({[5-{1-[4-fluoro-3-(methyloxy)phenyl]-1-methylethyl}-1-(4-fluorophenyl)-1H-imidazol-2-yl]thio}methyl)phenyl]sulfonyl}amino)-N,N,N-triethylpropan-1-aminium]: the pEC50 at h-TGR5 and at human TGR5 (h-TGR5) was above 7.00 in each case.
